Measurements: patent US8377883B2, “Peptide for anti-angiogenesis and use thereof” (Beijing Institute for Cancer Research, priority 2006, dated 2013)

How the values were obtained:
[1] = tested on: human umbilical vein endothelial cells (HUVECs); experiment: Microfilament skeleton of HUVECs by confocal microscope; type: cell-based; settings: 10, 25, 100 μg/ml; 48, 72, 96 hours
Method: Human umbilical cord samples (obtained from Beijing Obstetrics & Gynecology Hospital) was digested with 0.1% collagenase I (available from GIBCO BRL company), followed by a centrifugation (1000 rpm, 10 minutes) to collect human umbilical vein endothelial cells (HUVECs). After suspended in 20% FCS/RPMI1640, the cells were transferred into plastic bottles for culture in CO2 incubator (37° C., 5% CO2). Twelve hours later, unattached cells were discarded by changing medium, and then the remaining cells were cultured conventionally with the medium changed every 3 days. The cultured HUVECs were digested with 0.04% trypsin-EDTA, and inoculated into 24-well plate at 2×10^4 cells/well; and the vehicle (PBS) and FpAT (10 μg/ml, 25 μg/ml, 100 μg/ml) were added separately, with 3 parallel wells per group. […] After washing twice with PBS, Hoechst was added to stain nucleus. After washed once with PBS, the slide was mounted with mounting solution, and stored at 4° C. in the dark. The change of cytoskeleton was observed employing a confocal microscope.

tumor microvessel = experiment: Tumor microvessel density (MVD) by factor VIII immunohistochemistry; type: in vivo, mice
Method: In order to confirm that the suppression of FpAT on tumor growth in mice in vivo is achieved by suppressing angiogenesis, an analysis of microvessel density in tumor was performed in this example by using tumor mass in Examples 4 and 5.
The tumor masses were fixed with formaldehyde, and then cut into serial section of 3 μm. The paraffin sections were dewaxed to water, and incubated in 3% H2O2 at room temperature for 10 minutes, to which rabbit anti-human factor VIII polyclonal antibody (DAKO company) was added dropwise, and after left at 4° C. overnight; 1:200 sheep anti-rabbit IgG labeled with biotin (Beijing ZhongShan bioengineering Company) was added dropwise, and incubated at 37° C. for 30 minutes. […] Then a visual field with most interstitial blood vessels of cancer nest was chosen, and under a ×400 magnitude field, 3 visual fields were counted by 3 observers individually according to double blind method; wherein individual cells and cell clusters stained brown were observed and taken as one blood vessel, whereas blood vessel cavities and erythrocytes therein were not counted, and blood vessel or vessel cavities in muscular layer larger than 50 μm were excluded. The average value of numbers counted by 3 individuals was taken as MVD (microvessel density) result of this case for a statistics analysis, see Table 4.

[2] = tested on: mouse liver cancer H22 cells; experiment: Tumor suppression in liver cancer H22 cells tumor-bearing mouse model (Example 4); type: in vivo, mice of Kunming strain; settings: 50 m/1000 PBS/injection, angulus oculi medialis vein daily, 7 times; vs PBS control, P<0.05
Method: To confirm the biological effects of FpAT on the growth of mice deriving tumor in mice in vivo, a tumor suppression experiment was carried out in this example using liver cancer H22 cells tumor-bearing mouse model of mice of Kunming strain and osteosarcoma S180 cells tumor-bearing mouse model of mice of Kunming strain. Forty 5-week old mice of Kunming strain purchased from Animal Center Of Chinese Academy Of Medical Sciences were inoculated subcutaneously in forelimb with mouse liver cancer H22 cells (National Institute for the Control of Pharmaceutical and Biological Products) (5×10^6/100 μl/mouse) or osteosarcoma S180 cells (National Institute for the Control of Pharmaceutical and Biological Products) (5×10^6/100 μl/mouse). On the next day after inoculation, each kind of inoculated cells were divided into 2 groups randomly with 10 mice per group. FpAT ([…]) or vehicle (the solvent for peptide) control (PBS:100 μl/injection) were injected in angulus oculi medialis vein daily, 7 times in total. The mice were sacrificed by dislocating the neck on the next day after administration was stopped, and the tumors were taken and weighed for a statistical analysis.

[3] = tested on: D2F2 cells (Balb/c mouse-derived breast carcinoma cell); experiment: MTT proliferation of D2F2 cells; type: cell-based; settings: 25 μg/ml PBS, ninety six hours
Method: To investigate direct effects of FpAT on tumor cells in vitro, the influence of FpAT on the proliferation of D2F2 cell (Balb/c mouse-derived breast carcinoma cell) was examined using MTT in this example.
D2F2 cells (Mahoney K H, Miller B E, Heppner G H. FACS quantitation of leucine aminopeptidase and acid phosphatase on tumor-associated macrophages from metastatic and nonmetastatic mouse mammary tumors. J Leukoc Biol. 1985 November; 38(5): 573-85.) were cultured conventionally. The cultured D2F2 cells were digested with 0.04% trypsin-EDTA, and inoculated into 96-well plate at 3×10^3 cells/well; after 24 hours of culture, PBS and FpAT (25 μg/ml PBS) were added separately, with 4 parallel wells per group. Ninety six hours later, 20 μl MTT solution of mass concentration of 5 mg/ml was added to each well. After the culture was performed continuously for 4 hours, the original culture medium was discarded and 200 μl DMSO was added to each well, and then it was shaken for 15 minutes. After mixed well, OD value (measured at a wavelength of 570 nm) of each well was measured in a microplate reader, and the cell suppression rates were calculated according to the following formula: cell suppression rate=(mean OD value of blank control group−mean OD value of treated group)/mean OD value of blank control group×100%.

[4] = tested on: human gastric carcinoma BGC-823 cells; experiment: Tumor suppression in human gastric carcinoma BGC-823 tumor-bearing nude mice model; type: in vivo, Balb/c nude mice; settings: 50 μg/100 μl PBS/injection, angulus oculi medialis vein once every other day, 10 times; vs vehicle, P<0.05
Method: In order to confirm the biological effects of FpAT on the growth of human deriving tumors in nude mice in vivo, a tumor suppression experiment was carried out in this example using human gastric carcinoma BGC-823 cells tumor-bearing nude mice model, human lung cancer PG cells tumor-bearing nude mice model and human colon cancer HT-29 cells tumor-bearing nude mice model.
Twenty 5-week old Balb/c nude mice purchased from Animal Center Of Chinese Academy Of Medical Sciences were inoculated subcutaneously in forelimb with human gastric carcinoma BGC-823 cells (National Institute for the Control of Pharmaceutical and Biological Products) (5×10^6/100 μl/mouse), human lung cancer PG cells (National Institute for the Control of Pharmaceutical and Biological Products) (5×10^6/100 μl/mouse) or human colon cancer HT-29 cells (ATCC® Number: HTB-38™) (5×10^6/100 μl/mouse). On the next day after inoculation, each kind of inoculated cells were divided into 2 groups randomly with 5 mice per group. […] Observation was continued for another 20 days after administration was stopped, and during this period the long and short diameters of the tumors were measured with a vernier caliper once every three days, and the volumes of the tumor mass were calculated according to formula ½×long diameter×short diameter^2. […]

H2N-Asp-Ser-Gly-Glu-Gly-Asp-Phe-Leu-Ala-Glu-Gly-Gly-Gly-Val-Arg-COOH (H-DSGEGDFLAEGGGVR-OH; listed as Homo sapiens) [FpAT, fibrinopeptide A truncated, carboxyl terminal 15 amino acids of fibrinopeptide A]
microfilament disassembly in HUVECs [1]: can induce the microfilament disassembly | MVD (tumor microvessel; tumor mass of Examples 4 and 5, 20 visual fields observed totally, PBS group 6.4): 2.6 Number of micro vessel/visual field | growth of microvessel in tumor tissue (tumor microvessel; vs PBS control group, P<0.05): suppressed significantly the growth of microvessel | growth of mouse liver cancer H22 cells in vivo (tumor mass) [2]: could suppressed the growths | suppression of D2F2 cell proliferation [3]: can not suppress D2F2 cells in vitro | growth of human gastric carcinoma BGC-823 cells in nude mice (tumor mass) [4]: could suppress the growths
